{
  "source": "patent US20140155445A1",
  "about": "“Compounds and Methods for Treating Cancer and Diseases of the Central Nervous System” (Osta Biotechnologies Inc., priority 2007, published 2014)",
  "key": {"SKMEL-V+ cells": {"tested_on": "SKMEL-V+ cells", "test": "Cell proliferation / survival, MTT assay, SKMEL-V+ cells", "format": "cell-based, human", "conditions": "96 hours; for % cell survival: 6.25 μM to 100 μM", "experimental": "Exponentially growing SKMEL-V+ cells (1×10^3) were seeded in 96-well plates in complete medium. […] Cell survival was evaluated 96 hours later using the MTT metabolic assay (Benlimame N, He Q, Jie S, et al. FAK signaling is critical for ErbB-2/ErbB-3 receptor cooperation for oncogenic transformation and invasion. J Cell Biol 2005; 171: 505-16)."}, "APPswe/PS1dE9 mice": {"tested_on": "APPswe/PS1dE9 mice", "test": "Behavioral studies (maze, fear conditioning) in APPswe/PS1dE9 mice", "format": "in vivo, mouse", "experimental": "The experiments were performed at Pennington Biomedical Research Centre (PBRC) of Lousiana State University, Baton Rouge, Lousiana and were approved by the Institutional Animal Care and Use Committee (IACUC) of PBRC.\nThe APPswe/PS1dE9 mice were generated against a C57/BL6J background by breeding either +/+ males or females with −/− females or males, respectively.\nMemantine (10 mg/kg) and both doses of QC-199 (15 mg/kg & 30 mg/kg) were prepared in batches and frozen for later use. Each compound was weighed and dissolved in injectable sterile saline solution. Memantine was prepared at a concentration of 1 mg/ml, the 15 mg/kg dose of QC-199 at a volume of 15 mg/10 ml, and the 30 mg/kg dose of QC-199 at a volume of 30 mg/10 ml. The compounds were prepared in this volume so that the mice could easily be injected based on their body weight, e.g., a 35 gram mouse was injected with 0.35 ml dosing solution.\nMemantine and QC-199 dosing solutions were administered to mice via i.p. injections. The mice were weighed 3 times/week and were injected with a volume that matched their body weight. The mice were injected daily and the injection located was alternated each day to avoid potential complications from injection in the same location on a daily basis.\nAfter reaching their respective treatment duration, the wild type and APP/PS1 double transgenic mice were run through the STM and fear conditioning. The STM consisted of one day of straight run training (running down an alley from the start box to the goal box). This phase was implemented to establish the contingency that moving forward would provide escape into the dark and dry goal box. The mice were required to reach a criterion of completing the straight run in 15 sec or less on 7 out of 9 trials over a maximum of 15 trials. […] The following day each mouse was administered 15 trials in the STM with approximately 7-10 min between each trial where they were placed into a holding cage with a towel. The latency to reach the goal box and the number of errors committed were the dependent measures of learning. However, in our experience, errors committed is much more indicative of learning and is reported for this project. Pictures of the straight run (A) and maze (B) are shown in FIG. 42, along with a schematic (C) of the maze indicating the correct path. The data from the maze was collapsed into blocks of 5 trials for data summary and presentation.\nMed Associates Inc.'s MED-VFC-NIR-M NIR Video Fear Conditioning System for Mouse, Pavlovian fear conditioning was conducted after the STM. On Day 1 the mice were placed in Context 1 and given 5 tone+shock pairings. On day 2 the mice were placed back into Context 1 and their freezing response to being placed back into the original context where fear conditioning occurred was measured. Freezing is operationally defined as the cessation of all movement except that required for respiration. Freezing was measured over 10 minutes, and data were summarized in 1-min intervals. On day 3 the mice were placed into a novel context (Context 2) for 10 min. […] For the final 5 min, the tone paired with shock during fear conditioning was presented. Again, the data was summarized in 1-min intervals.\nMaze data was analyzed by two-way ANOVAs to determine treatment group effects for both errors and run time after the data was collapsed into three 5 trial blocks. Planned comparisons of transgenic mice treated with saline with each of the drug treatments, memantine or QC-199 at 15 mg/kg/day and 30 mg/kg/day were conducted to evaluate group differences in the maze at each trial block and both tone and contextual fear conditioning tests. The critical a level was set at 0.05 for all statistical tests. The values in FIGS. 46A-46C represent the means±S.E.M. The data was analyzed using the SPSS statistical program version 11.0. […]"}, "[1]": {"tested_on": "PC-3 (human prostate carcinoma)", "test": "Prostate carcinoma model PC-3 in SCID mice", "text": "• Species and strain: Mouse (Mus musculus); female SCID (MDA231 and OVCAR3), male SCID (PC-3, HCT116); male CD57 B16 mice (BL16-BL6) • Age: 6-8 weeks old. • Supplier: Charles River Laboratories, Inc., St-Constant, Quebec, Canada. • Acclimation: Mice were acclimated to laboratory conditions for approximately 1 week prior to tumor cell inoculation. • Identification: Mice were identified by ear punch combination. • Housing: Mice were housed in groups of 3-5 in a designated animal facility with a temperature of 22° C., a relative humidity of 40-50%, and a 12 hr light/dark cycle.\nPC-3 (human prostate carcinoma). These cells were originally received from the ATCC. Early passage cells (tested free of mycoplasma) were grown to 60% confluence in DMEM medium supplemented with 10% fetal bovine serum, and antibiotics. Cell harvesting was performed using trypsin-EDTA solution.\nExponentially growing cells were harvested using trypsin-EDTA solution. […] Cell viability was confirmed by trypan blue staining. […] One to 2 millions cells suspended in 0.1 mL phosphate buffer solution was implanted into the mammary fat pad (MCF7) or subcutaneously into the axillary region of the right flank of recipient SCID mice. All animals were inoculated at the same site.\nMice were subjected to general examination on daily basis. […] Control groups received the vehicle alone. Chemotherapy drugs were also given by intraperitoneal route according to the schedule described below.\nPrimary tumor growth was monitored every second to fourth day using calipers. Relative tumor volume (cm^3) was determined by the formula:\nBody weights were monitored every third to fifth day. Animals experiencing signs of discomfort were sacrificed immediately (in some cases they were replaced by spared mice). […] Mice were sacrificed by cervical dislocation and immediately subjected to full autopsy."}, "[2]": {"tested_on": "human metastatic prostate cancer PC-3M cells", "test": "Orthotopic PC-3M prostate cancer model in SCID mice", "format": "in vivo", "from_the_text": "PC-3 & PC-3M (human prostate carcinoma). The PC-3 human prostate cancer cell line was originally obtained from the American Type Culture Collection (Rockville, Md.). The PC-3M cell line was kindly provided by Dr. Issac (MD Anderson Cancer Center). This cell variant was derived from a liver metastasis produced by the parental PC-3 cells growing in the spleen of a nude mouse [Pettaway C A, Pathak S, Greene G, et al. Selection of highly metastatic variants of different human prostate carcinomas utilizing orthotopic implantation in nude mice.\nMale SCID mice were housed in laminar flow under specific pathogen-free conditions and used at 8-9 weeks of age. Animals were maintained in the LDI facilities approved by the Laboratory Animal Care in accordance with current Canadian regulations and standards for the use of animals for research.\nMice were anesthesized with isofluorane given by inhalation and placed in a supine position. […] A low midline incision was made and the prostate was exposed. Fifty microliters of HBSS containing 1×10^6 cells was injected into a lateral lobe of the prostate. The wound was closed with surgical metal clips in two layers, the muscle layer first and then the skin layer using stainless steel clips (autoclips: 9 mm; Clay Adams Inc., Parsippany, N.J.). […] Control groups received the vehicle alone. Taxol™ was given either ip or iv as indicated.\nPrimary tumors in the prostate were excised, measured, and weighed. When applicable, immunohistochemistry and H&E staining were conducted on one part of the tumor, fixed in formalin and embedded in paraffin or OCT compound (Miles Inc., Elkhart, Ind.); the later was rapidly frozen in liquid nitrogen, and stored at −70° C. Macroscopically enlarged regional lymph nodes were harvested and the presence of metastatic disease was confirmed by histology.\nThe in vivo data was analyzed using the Mann-Whitney U test."}, "[3]": {"conditions": "QC-56 30 mg/kg intraperitoneally daily for 12 days, Taxol 10 mg/kg i.p. 3 cycles"}},
  "data": [
    {"smiles": "OC(Cn1ccnc1)c1ccc(-c2ccc(Br)cc2)cc1", "note": "(racemic) [QC-304, (±)-1-(4′-bromo-biphenyl-4-yl)-2-imidazol-1-yl-ethanol]", "values": [
      {"measurement": "% cell survival", "setting": "SKMEL-V+ cells", "result": "no significant change in cell survival"},
      {"measurement": "potency in comparison with the other HO-1 inhibitors", "setting": "SKMEL-V+ cells; 6.25 μM", "result": "most potent"}
    ]},
    {"smiles": "CC12CC3CC(C)(C1)CC(N)(C3)C2", "note": "[Memantine, reference compound]", "values": [
      {"measurement": "effect on maze errors and contextual fear conditioning (summary)", "setting": "APPswe/PS1dE9 mice; Memantine, QC-199 15 mg/kg and 30 mg/kg, dtg mice", "result": "positive effect"},
      {"measurement": "maze errors vs saline-treated APP/PS1 mice", "setting": "APPswe/PS1dE9 mice; QC-199 15 mg/kg/day i.p., Memantine 10 mg/kg i.p., improved at Trial Blocks 2 and 3, not 1", "result": "improved maze"},
      {"measurement": "contextual fear conditioning (freezing) vs saline-treated APP/PS1 mice", "setting": "APPswe/PS1dE9 mice; QC-199 15 and 30 mg/kg/day, Memantine 10 mg/kg, Time Blocks 1-4", "result": "no significant differences"},
      {"measurement": "tone fear conditioning (freezing) vs saline-treated APP/PS1 mice", "setting": "APPswe/PS1dE9 mice; QC-199 15 and 30 mg/kg/day, Memantine 10 mg/kg, Trial Blocks 3 and 4", "result": "no significant differences"}
    ]},
    {"smiles": "Cl.FC(F)(F)c1ccc(CCCCn2ccnc2)cc1", "note": "[QC-234, 1-[4-(4-(Trifluoromethyl)phenyl)butyl]-1H-imidazole hydrochloride]", "values": [
      {"measurement": "% cell survival", "setting": "SKMEL-V+ cells", "result": "Dose dependent decrease in cell survival"}
    ]},
    {"smiles": "CC(=O)O[C@H]1C(=O)[C@@]2(C)[C@H]([C@H](OC(=O)c3ccccc3)[C@]3(O)C[C@H](OC(=O)[C@H](O)[C@@H](NC(=O)c4ccccc4)c4ccccc4)C(C)=C1C3(C)C)[C@]1(OC(C)=O)CO[C@@H]1C[C@@H]2O", "note": "[Taxol™, paclitaxel, reference compound]", "values": [
      {"measurement": "Body Weights (g) d8 (mean + SE)", "setting": "[1]; PC-3 mice, treatment day 8", "result": "22.40 ± 7.92", "unit": "g"},
      {"measurement": "Body Weights (g) d42 (mean + SE)", "setting": "[1]; PC-3 mice, treatment day 42", "result": "17.70 ± 6.25", "unit": "g"},
      {"measurement": "inhibition of tumor growth compared to vehicle alone", "setting": "[1]; QC-56 60 mg/kg/ip, Taxol 10 mg/kg", "result": "~28", "unit": "%"},
      {"measurement": "inhibition of tumor growth", "setting": "[2]; [3]", "result": 64, "unit": "%"},
      {"measurement": "reduction in microscopic lymph node metastases", "setting": "[2]; [3]", "result": 82, "unit": "%"},
      {"measurement": "reduction in microscopic lymph node metastases", "setting": "[2]; QC-56 40 mg/kg daily for 24 days, Taxol 10 mg/kg, 4 cycles", "result": 47, "unit": "%"},
      {"measurement": "inhibition of tumor growth compared to untreated mice", "setting": "[2]; QC-56 40 mg/kg daily for 24 days, Taxol 10 mg/kg, 4 cycles, 3 administrations per cycle", "result": 45, "unit": "%"}
    ]}
  ]
}
